Experimental data reported in patent US20230295197A1, “STAT5 and STAT6 Degraders and Uses Thereof” (REGENTS OF THE UNIVERSITY OF MICHICAN, priority 2022, published 2023).
Like-named read-outs stand apart in the source and are kept apart here. *1 amine or outer side, *2 acyl side, *3 side chain or, on linkers, in order; H or OH if unused. Where a SMILES comes first, the peptide text is derived from it. [ ]: non-standard residue; d: D form. The star is where a group is joined. Benzothienyl2CO(5-CF2PO3H2) = O=C(c1cc2cc(C(F)(F)P(=O)(O)O)ccc2s1)*; βAla(N-(4-Br-phenyl)) = O=C(CCN(c1ccc(Br)cc1)[*:1])[*:2]; NHBn(4-(4-Me-thiazol-5-yl)) = Cc1ncsc1-c1ccc(CN*)cc1; NH(CH2)9CO = O=C(CCCCCCCCCN[*:1])[*:2]; Hyp = O=C(O)[C@@H]1C[C@@H](O)CN1; Tle = CC(C)(C)[C@H](N)C(=O)O

Target: T1, STAT6 (Homo sapiens, UniProt P42226)
T1 construct: endogenous in cells; host or cells: MOLM-16, KU-812, SKNO1, MB231, L1236
T1 sequence (P42226 1-847): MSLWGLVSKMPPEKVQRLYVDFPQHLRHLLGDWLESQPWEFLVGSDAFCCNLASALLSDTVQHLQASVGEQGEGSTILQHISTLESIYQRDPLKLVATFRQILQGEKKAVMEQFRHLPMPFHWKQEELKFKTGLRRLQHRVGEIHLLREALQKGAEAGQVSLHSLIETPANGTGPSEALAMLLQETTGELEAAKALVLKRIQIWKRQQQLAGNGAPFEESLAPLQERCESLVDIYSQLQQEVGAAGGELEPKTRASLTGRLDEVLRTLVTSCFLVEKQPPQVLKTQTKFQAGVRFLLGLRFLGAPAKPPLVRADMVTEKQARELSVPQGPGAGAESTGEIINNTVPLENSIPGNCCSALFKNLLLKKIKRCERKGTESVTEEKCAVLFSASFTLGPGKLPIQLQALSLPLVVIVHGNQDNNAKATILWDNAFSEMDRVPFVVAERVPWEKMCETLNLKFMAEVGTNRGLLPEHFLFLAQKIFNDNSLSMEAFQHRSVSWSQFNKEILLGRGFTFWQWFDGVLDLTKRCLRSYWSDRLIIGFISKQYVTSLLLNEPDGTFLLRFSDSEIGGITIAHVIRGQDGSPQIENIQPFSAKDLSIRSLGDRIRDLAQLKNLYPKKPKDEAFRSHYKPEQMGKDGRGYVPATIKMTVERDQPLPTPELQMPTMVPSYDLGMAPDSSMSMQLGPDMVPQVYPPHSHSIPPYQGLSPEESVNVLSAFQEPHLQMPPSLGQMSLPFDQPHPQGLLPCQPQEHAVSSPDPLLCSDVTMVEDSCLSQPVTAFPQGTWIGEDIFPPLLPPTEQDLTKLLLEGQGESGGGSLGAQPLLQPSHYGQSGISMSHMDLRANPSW
Assay: Immunoblotting (Western blot) analysis of STAT6 degradation efficiency of degraders in treated cells
Assay type: cell-based
Method in brief: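 Degradation read by quantitative near-infrared Western blot: equal protein loads (20-40 μg) from compound-treated versus untreated cells, probed overnight at 4° C. for STAT5 or STAT6 with GAPDH reference. Compound concentrations and exposure times as indicated; cells grown in medium with 10% FBS at 37° C.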

[1] = L1236 cells, read-out: DC50 S6 L1236
[2] = MOLM-16 cells, class symbols, read-out: DC50 S6 MOLM-16

| SMILES | DC50 (read-out: DC50 S6 MB231, MB231 cells) [µM] | DC50 [1] [µM] | DC50 [2] [µM] | DC50 (MB231 cells, read-out: DC50 S6 MB231) [µM] |
| --- | --- | --- | --- | --- |
| Cc1ncsc1-c1ccc(CNC(=O)[C@@H]2C[C@@H](O)CN2C(=O)[C@@H](NC(=O)CCCCCCCCCNC(=O)CCN(C(=O)[C@@H]2CCCN2C(=O)[C@@H](NC(=O)c2cc3cc(C(F)(F)P(=O)(O)O)ccc3s2)C(C)(C)C)c2ccc(Br)cc2)C(C)(C)C)cc1 [Compound 396] ({Benzothienyl2CO(5-CF2PO3H2)}-[Tle]P[βAla(N-(4-Br-phenyl))][NH(CH2)9CO][Tle][Hyp]-{NHBn(4-(4-Me-thiazol-5-yl))}) | > 10 | – | – | – |
| Cc1ncsc1-c1ccc([C@H](C)NC(=O)[C@@H]2C[C@@H](O)CN2C(=O)[C@@H](NC(=O)CCCCCCCNC(=O)CO[C@H]2C[C@@H](C(=O)N3CCC[C@H](c4ccccc4)C3)N(C(=O)[C@@H](NC(=O)c3cc4cc(C(F)(F)P(=O)(O)O)ccc4s3)C(C)(C)C)C2)C(C)(C)C)cc1 [Compound 440, (difluoro(2-(((S)-1-((2S,4S)-4-(2-((8-(((S)-1-((2S,4R)-4-hydroxy-2-(((S)-1-(4-(4-methylthiazol-5-yl)phenyl)ethyl)carbamoyl)pyrrolidin-1-yl)-3,3-dimethyl-1-oxobutan-2-yl)amino)-8-oxooctyl)amino)-2-oxoethoxy)-2-((R)-3-phenylpiperidine-1-carbonyl)pyrrolidin-1-yl)-3,3-dimethyl-1-oxobutan-2-yl)carbamoyl)benzo[b]thiophen-5-yl)methyl)phosphonic acid] | – | > 10 | > 10 | – |
| Cc1ncsc1-c1ccc([C@H](C)NC(=O)[C@@H]2C[C@@H](O)CN2C(=O)[C@@H](NC(=O)CCCCCNC(=O)COc2ccc3c(c2)CN(C(=O)[C@@H](NC(=O)c2cc4cc(C(F)(F)P(=O)(O)O)ccc4s2)C(C)(C)C)[C@H](C(=O)N2CCO[C@H](c4ccccc4)C2)C3)C(C)(C)C)cc1 [Compound 465, (difluoro(2-(((S)-1-((S)-7-(2-((6-(((S)-1-((2S,4R)-4-hydroxy-2-(((S)-1-(4-(4-methylthiazol-5-yl)phenyl)ethyl)carbamoyl)pyrrolidin-1-yl)-3,3-dimethyl-1-oxobutan-2-yl)amino)-6-oxohexyl)amino)-2-oxoethoxy)-3-((R)-2-phenylmorpholine-4-carbonyl)-3,4-dihydroisoquinolin-2(1H)-yl)-3,3-dimethyl-1-oxobutan-2-yl)carbamoyl)benzo[b]thiophen-5-yl)methyl)phosphonic acid] | – | > 10 | > 10 | – |
| CC(C)(C)[C@H](NC(=O)c1cc2cc(C(F)(F)P(=O)(O)O)ccc2s1)C(=O)N1Cc2cc(OCC(=O)NCCCCC#Cc3ccc4c(c3)C(=O)N(C3CCC(=O)NC3=O)C4=O)ccc2C[C@H]1C(=O)N1CCC[C@H](c2ccccc2)C1 (stereo partly drawn) [Compound 556, ((2-(((2S)-1-((3S)-7-(2-((6-(2-(2,6-dioxopiperidin-3-yl)-1,3-dioxoisoindolin-5-yl)hex-5-yn-1-yl)amino)-2-oxoethoxy)-3-((R)-3-phenylpiperidine-1-carbonyl)-3,4-dihydroisoquinolin-2(1H)-yl)-3,3-dimethyl-1-oxobutan-2-yl)carbamoyl)benzo[b]thiophen-5-yl)difluoromethyl)phosphonic acid] | – | – | > 10 | – |
| Cc1ncsc1-c1ccc(CNC(=O)[C@@H]2C[C@@H](O)CN2C(=O)[C@@H](NC(=O)CCCCNC(=O)CO[C@@H]2C[C@@H](C(=O)N(C)c3ccc(Br)cc3)N(C(=O)[C@@H](NC(=O)c3cc4cc(C(F)(F)P(=O)(O)O)ccc4s3)C(C)(C)C)C2)C(C)(C)C)cc1 [Compound 416, ((2-(((S)-1-((2S,4R)-2-((4-bromophenyl)(methyl)carbamoyl)-4-(2-((5-(((S)-1-((2S,4R)-4-hydroxy-2-((4-(4-methylthiazol-5-yl)benzyl)carbamoyl)pyrrolidin-1-yl)-3,3-dimethyl-1-oxobutan-2-yl)amino)-5-oxopentyl)amino)-2-oxoethoxy)pyrrolidin-1-yl)-3,3-dimethyl-1-oxobutan-2-yl)carbamoyl)benzo[b]thiophen-5-yl)difluoromethyl)phosphonic acid] | – | > 10 | – | > 10 |
